# Source: US6110491A, “Compound-loaded liposomes and methods for their preparation” (Hermes Biosciences, Inc., priority 1997, dated 2000)
# Legend:
# [1] = Doxorubicin loading into liposomes with entrapped anions essentially free from transmembrane pH or ammonium ion gradients (Example 8); assay type: physicochemical; details: 36° C., 12 hours
# Procedure: Aqueous solutions containing ammonium salts of hydrochloric, nitric, methanesulfonic, L(+)-tartaric, citric, sulfuric, phosphoric, diethylenetriamine pentaacetic (DTPA), or polyacrylic (Mol. weight. 2,000) acids were prepared by titration of the respective acids in water with the standard aqueous solution of ammonium hydroxide to achieve pH 7.3±0.05,followed by volume adjustment to achieve 0.2 equivalent/L of ammonium ion, and, if necessary, by addition of dry sucrose to achieve osmolarity of 377 mmol/kg. (These solutions are hereinafter referred to as Inner Buffers). All solutions additionally contained 10 mM hydroxyethylpiperazinoethane sulfonic acid (HEPES) to stabilize the pH at titration endpoint. To afford determination of intraliposomal pH, a fluorescence indicator 8-hydroxypyrene trisulfonate was added to the solutions to the final concentration of 0.2 mM. Liposomes containing entrapped ammonium salt solutions as above were prepared from egg phosphatidyl choline, cholesterol, and PEG-DSPE as described in the Example 7, except that lipid hydration and extrusion were carried out at room temperature. The bulk aqueous phases of liposome preparations were exchanged by gel-filtration for an aqueous solution (Outer buffer) containing 0.2 M ammonium chloride, 10 mM HEPES, pH 7.3, osmolarity 377 mmol/kg, to obtain liposome preparations substantially without transmembrane ammonium-ion gradients. Loading of doxorubicin was performed as in Example 7, except that it was at 36° C. for 12 hours. Intraliposomal pH was determined using HPTS fluorescence method (Straubinger, et al., 1990) prior to drug loading, and indicated essentially no inside-outside pH gradient (less than 0.2 pH units), compared with the gradient of several pH units typical for ammonium ion gradient liposomes (Haran, et al., 1993). The following results were obtained (nd, not determined)
# [2] = Doxorubicin loading into liposomes containing ammonium polyacrylate or sulfate in absence of ammonium ion gradient (Example 7); assay type: physicochemical; details: for Doxorubicin absorbed by liposomes: no ammonium ion gradient; for Doxorubicin incorporation into liposomes: outer Cl-
# Procedure: Liposomes with entrapped ammonium sulfate or ammonium polyacrylate were prepared from the lipid mixture of hydrogenated soybean phosphatidylcholine (Avanti PolarLipids, Ala., U.S.A.), cholesterol (Calbiochem, USA), and poly(ethylene glycol) (Mol. weight 2,000) derivative of distearoyl phosphatidyl ethanolamine (PEG-DSPE) (Sygena, Switzerland), at the molar ratio 60:40:6, by lipid film hydration, repetitive freezing-thawing at 60° C. (6 times) and extrusion through two stacked polycarbonate track-etched membranes with the pore size 100 nm at 60° C. (12 times). The bulk aqueous phase of the liposomes was exchanged by gel-filtration for the outer buffer, 0.2 M ammonium chloride, adjusted (when necessary) to pH 7.3 and buffered with 10 mM sodium hydroxyethylpiperazino-ethane sulfonate (HEPES). The inner (entrapped) solution had ammonium ion concentration of 200 milli-eqivalent/L, i.e. the same as the outer buffer (no ammonium ion gradient), and the anion composition and pH as indicated below. Polyacrylic acid with mol. weight of 2,000 (Aldrich Chemical Co.) was used. Doxorubicin was added to the liposomes at 2 mg for each 6-8 micro-mol of phospholipid, and incubated with shaking at 60° C., i.e. above the transition temperature of the lipid bilayer, for various times as specified below. […] Doxorubicin-loaded liposomes were separated from the free drug by gel-chromatography on Sephadex G-75, eluted with the outer buffer. Liposomal doxorubicin was assayed by spectrophotometry at 485 nm, phospholipid was quantitated by molybdate method after acid digestion of the liposomes.
structure (smiles),measurement,setting,value
COc1cccc2c1C(=O)c1c(O)c3c(c(O)c1C2=O)C[C@@](O)(C(=O)CO)C[C@@H]3O[C@H]1C[C@H](N)[C@H](O)[C@H](C)O1 [doxorubicin],Doxorubicin incorporation into liposomes,[1]; inner buffer anion DTPA,40.8 mg of drug/mmol of liposome ph
same,Doxorubicin incorporation into liposomes,[1]; inner buffer anion L(+)-tartrate,27.5 mg of drug/mmol of liposome ph
same,Doxorubicin incorporation into liposomes,[1]; inner buffer anion chloride,16.8 mg of drug/mmol of liposome ph
same,Doxorubicin incorporation into liposomes,[1]; inner buffer anion citrate,97.9 mg of drug/mmol of liposome ph
same,Doxorubicin incorporation into liposomes,[1]; inner buffer anion methanesulfonate,17.1 mg of drug/mmol of liposome ph
same,Doxorubicin incorporation into liposomes,[1]; inner buffer anion nitrate,12.4 mg of drug/mmol of liposome ph
same,Doxorubicin incorporation into liposomes,[1]; inner buffer anion phosphate,68.1 mg of drug/mmol of liposome ph
same,Doxorubicin incorporation into liposomes,[1]; inner buffer anion polyacrylate,142.7 mg of drug/mmol of liposome ph
same,Doxorubicin incorporation into liposomes,[1]; inner buffer anion sulfate,33.5 mg of drug/mmol of liposome ph
same,Doxorubicin absorbed by liposomes,[2]; ammonium polyacrylate liposomes,considerable amounts
same,Doxorubicin absorbed by liposomes,"[2]; ammonium sulfate liposomes, 60° C.",very small amounts
same,Doxorubicin precipitate formation,"[2]; in the presence of polyacrylate anion, 60° C.",visibly precipitated
same,Doxorubicin precipitate formation,"[2]; in the presence of sulfate anion, 60° C.",did not form a detectable precipitate
same,Doxorubicin incorporation into liposomes,"[2]; inner SO4^2-, pH 7.3, 1 hour, 60° C.",6.1 ± 0.8 mg of drug/mmol of liposome ph
same,Doxorubicin incorporation into liposomes,"[2]; inner SO4^2-, pH 7.3, 16 hours, 60° C.",5.1 ± 0.2 mg of drug/mmol of liposome ph
same,Doxorubicin incorporation into liposomes,"[2]; inner polyacrylate, pH 5.2, 1 hour, 60° C.",59.7 ± 2.5 mg of drug/mmol of liposome ph
same,Doxorubicin incorporation into liposomes,"[2]; inner polyacrylate, pH 7.3, 1 hour, 60° C.",91.0 ± 2.8 mg of drug/mmol of liposome ph
